Data from patent publication EP0999856B1, “RADIOPHARMACEUTICALS FOR IMAGING INFECTION AND INFLAMMATION” (Bristol-Myers Squibb Pharma Company, priority 1996, dated 1998).

Molecular target: PMN LTB4 receptor (Homo sapiens, UniProt Q15722)
Experiment: LTB4 Human Neutrophil (PMN) Binding Assay
Protocol: Heparinized blood was placed on a ficol gradient followed by its sedimentation with dextran. […] The PMN solution was adjusted to achieve a concentration of 8 X 10^6 PMN/ml. […] Very briefly, the assay was performed as follows; [3H]LTB4 (1 nM) and test agent were placed into a 96 well microplate with filters (0.65 µm pore size). PMN solution (8 x 10^6/ml) was added and the microplate incubated for 10 min at 4° C. The microplate was then placed on Millipore filtration system; the wells washed with cold saline (3 x) and dried. The filters were removed from the microplate; placed into scintillation fluid and the concentration of [3H]LTB4 determined.

Sequence of PMN LTB4 receptor (Q15722 whole entry): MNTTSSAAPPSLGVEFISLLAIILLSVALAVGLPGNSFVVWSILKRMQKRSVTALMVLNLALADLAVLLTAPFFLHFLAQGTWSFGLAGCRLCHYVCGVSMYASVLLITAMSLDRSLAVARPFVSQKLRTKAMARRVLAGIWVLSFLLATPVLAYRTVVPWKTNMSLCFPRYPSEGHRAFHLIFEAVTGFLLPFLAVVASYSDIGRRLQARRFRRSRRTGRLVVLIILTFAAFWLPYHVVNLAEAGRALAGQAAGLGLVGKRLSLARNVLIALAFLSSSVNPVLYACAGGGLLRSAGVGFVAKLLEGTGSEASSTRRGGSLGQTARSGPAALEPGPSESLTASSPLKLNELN

Ki: 8 nM
Structure (SMILES): CCc1cc(-c2ccc(F)cc2)c(O)cc1OCCCCC(C)(C)CNC(=O)c1ccc(NN=Cc2ccccc2)nc1 [IIa]
